Blank lines part the entries; values can stand above or below the molecule they belong to. Ends that are not written are not given here.
Experiments:
[1] = system: Cry j I reactive T cells; assay: T cell proliferation assay, Cry j I primed T cell lines (Example 6); assay type: cell-based, human; conditions: for T cell reactivity: Example 21 narrative, parent peptides of CJI-44.8; for T cell line response: panel of twenty-five patients, FIG. 14
Experimental: Viable cells were purified by LSM centrifugation and cultured in complete medium supplemented with 5 units recombinant human IL-2/ml and 5 units recombinant human IL-4/ml for up to three weeks until the cells no longer responded to lymphokines and were considered “rested”. The ability of the T cells to proliferate to selected peptides, recombinant Cry j I (rCry j I), purified native Cry j I, or recombinant Amb aI.1 (rAmb aI.1) or a positive control, phyto-hemaglutinin (PHA) was then assessed. For assay, 2×10^4 rested cells were restimulated in the presence of 2×10^4 autologous Epstein-Barr virus (EBV)-transformed B cells (prepared as described below) (gamma-irradiated with 25,000 RADS) with 2-50 μg/ml of selected peptides, Cry j I, purified native Cry j I or rAmb a I.1 or PHA, in a volume of 200 μl complete medium in duplicate or triplicate wells in 96-well round bottom plates for 2-4 days. […] Each well then received 1 μCi tritiated thymidine for 16-20 hours. The counts incorporated were collected onto glass fiber filter mats and processed for liquid scintillation counting. […] The titrations were used to optimize the dose of peptides in T cell assays. The maximum response in a titration of each peptide is expressed as the stimulation index (S.I.). The S.I. is the counts per minute (CPM) incorporated by cells in response to peptide, divided by the CPM incorporated by cells in medium only.
The above procedure was followed with a number of other patients. […] The bars represent the positivity index. Above each bar is the percent of positive responses with an S.I. of at least two to the peptide or protein in the group of patients tested. In parenthesis above each bar are the mean stimulation indices for each peptide or protein for the group of patients tested.
Autologous EBV-transformed cell lines were y-irradiated with 25,000 Rad and used as antigen presenting cells in secondary proliferation assays and secondary bulk stimulations. These EBV-transformed cell lines were made by incubating 5×10^6 PBL with 1 ml of B-59/8 Marmoset cell line (ATCC CRL1612, American Type Culture Collection, Rockville, Md.) conditioned medium in the presence of 1 μg/ml phorbol 12-myristate 13-acetate (PMA) at 37° C. for 60 minutes in 12×75 mm polypropylene round-bottom Falcon snap cap tubes (Becton Dickinson Labware, Lincoln Park, N.J.). These cells were then diluted to 1.25×10^6 cells/ml in RPMI-1640 as described above except supplemented with 10% heat-inactivated fetal bovine serum and cultured in 200 μl aliquots in flat bottom culture plates until visible colonies were detected. They were then transferred to larger wells until the cell lines were established.

[2] = Solubility, pH range protocol procedure; assay type: physicochemical; conditions: pH range pH6 to pH8
From the text: (§1) Of the above group of modified peptides, several peptides have been identified as “unique” modified peptides. […] Certain modified peptides are characterized as “unique” due to the difficulties encountered when developing a modified peptide which meets all of the stringent requirements of a “unique” peptide defined herein. In many cases, multiple modifications of a parent peptide are attempted prior to identifying a modified derivitive peptide which meets all the characteristics of a “unique” modified peptide. Unique modified peptides are particularly useful as candidate peptides for formulating injectable multipeptide therapeutic formulations of the invention because “unique” modified peptides are soluble and stable in the same physiologically acceptable pH range as well as elicit the necessary T cell reactivity of a therapeutic peptide of the invention. “Unique” modified peptides of the invention include but are not limited to the following group of modified peptides: CJ1-24.5, CJ1-43.39, CJ1-43.50, CJ1-44.8, and CJ1-44.9 all as shown in FIGS. 20 and 44. Example 21 describes the development and identification of “unique” modified peptides of the invention.
(§2) Additional truncation of two C-terminal residues yielded 44.2 (SEQ ID NO: ). […] Thus, 44.2 (SEQ ID NO: ) was further modified by the addition of charged (hydrophilic residues) to the N-terminus and by replacement of the hydrophobic residue Val with the less hydrophobic residue Ala. […] CJI-44.8 (SEQ ID NO: 132) was stable and soluble at greater than 5 mg/ml over the pH range pH6-pH8 in an aqueous buffer.

[3] = Stability in aqueous buffer; assay type: physicochemical; conditions: pH6 to pH8
From the text: as §1, §2

[4] = system: Cry j II reactive T cells; assay: T cell proliferation assay, Cry j II primed T cell lines (Example 19); assay type: cell-based, human
Experimental: Long term T cell lines were established by stimulation of 2×10^6 PBL/ml in bulk cultures of complete medium (RPMI-1640, 2 mM L-glutamine, 100 U/ml penicillin/streptomycin, 5×10^−5M 2-mercaptoethanol, and 10 mM HEPES supplemented with 5% heat inactivated human AB serum) with 10 μg/ml of partially purified native Cry j II for 7 days at 37° C. in a humidified 5% CO2 incubator to select for Cry j II reactive T cells. This amount of priming antigen was determined to be optimal for the activation of T cells from most Japanese cedar pollen Cry j II allergic patients. Viable cells were purified by LSM centrifugation and cultured in complete medium supplemented with 5 units recombinant human IL-2/ml and 5 units recombinant human IL-4/ml for up to three weeks until the cells no longer responded to lymphokines and were considered “rested”. The ability of the T cells to proliferate to peptides Cry j IIA (SEQ ID NO: 185) and Cry j IIB (SEQ ID NO: 186), recombinant Cry j II (rCry j II) (SEQ ID NO: 134), purified native Cry j II, was then assessed. For assay, 2×10^4 rested cells were restimulated in the presence of 2×10^4 autologous Epstein-Barr virus (EBV)-transformed B cells (prepared as described in Example 6) (gamma-irradiated with 25,000 RADS) with 2-50 ’g/ml of rCry j II (SEQ ID NO: 134), purified native Cry j II, peptides Cry j IIA (SEQ ID NO: 185) and Cry j IIB (SEQ ID NO: 186), positive control (PHA), negative control (Amb a I.1), in a volume of […] complete medium in duplicate or triplicate wells in 96-well round bottom plates for 2-4 days. […] Each well then received 1 μCi tritiated thymidine for 16-20 hours. The counts incorporated were collected onto glass fiber filter mats and processed for liquid scintillation counting. The maximum response in a titration of each peptide is expressed as the stimulation index (S.I.). The S.I. is the counts per minute (CPM) incorporated by cells in response to peptide, divided by the CPM incorporated by cells in medium only. A positivity index may be calculated by multiplying the mean S.I. (indicated above each bar in FIGS. 42 and 43) by the percentage of individuals responding to the peptide (indicated in parentheses above each bar in FIGS. 42 and 43). […]

[5] = system: patients' plasma IgE; assay: Direct binding assay of IgE to Cry j I, Cry j II and recombinant Cry j II (Example 18); parameters: species or system human
Experimental: Costar assay plates were coated with Cry j I or Cry j II at 2 μg/mL or recombinant Cry j II preparation at 10 μg/mL (approximately 20% pure) in a volume of 50 μL overnight at 4° C. The coating antigens were removed and the wells were blocked with 0.5% gelatin, PVP (polyvinyl pyrolidine) 1 mg/mL in PBS, 200 μL/well for 2 hours at room temperature. The anti-Cry j I monoclonal antibody, 4B11, was serially diluted in PBS-Tween 20 starting at a 1:1000 dilution. The human plasma were serially diluted in PBS-Tween at a starting dilution of 1:2. For this set 23 plasma samples from patients symptomatic for Japanese cedar pollen allergy chosen for IgE binding analysis. The first antibody incubation proceeded overnight at 4° C. Following three washes with PBS-Tween the second antibodies were added (biotinylated goat anti-mouse Ig or goat anti-human IgE both at 1:2000) and incubated for two hours at room temperature at 100 μL/well. After washing 3 times, […]. This solution was removed and streptavidin-HRPO diluted to 1:10,000, was added at 100 μL/well. The color was allowed to develop for 2-5 minutes. The reaction was stopped by the addition of 100 μL/well of 1M phosphoric acid. Plates were read on a Microplate IL310 Autoreader (Biotek Instruments, Winooski, Vt.) with a 450 nm filter. The absorbance levels of duplicate wells were averaged. A positive binding result, indicated by a plus sign is determined to be a reading of two-fold or greater above background (no first antibody) at the second dilution of plasma ([…]).

[6] = aqueous sodium phosphate buffer

Molecule: CJ1-32: Cry j I peptide, SEQ ID NO: 57 (SSGKYEGGNIYTKKEAFNVE; listed as Cryptomeria japonica)
- T cell reactivity [1]: high T-cell reactivity
- T cell line response [1]: responded

- solubility [2, 6]: > 5000 µg/mL
- stability [3]: stable
Molecule: DKEPRARYGLVHVANNNYDPWTIEEE [CJ1-24.5]

- solubility [2, 6]: > 5000 µg/mL
- stability [3]: stable
Molecule: DDAYSDDKSMKVTVAFNQFGDE [CJ1-43.39]

Molecule: CJ1-31: Cry j I peptide, SEQ ID NO: 56 (DVFYNGAYFVSSGKYEGGNI; listed as Cryptomeria japonica)
- T cell reactivity [1]: high T-cell reactivity
- T cell line response [1]: responded

- solubility ([2]; aqueous buffer): > 5000 µg/mL
- stability [3]: stable
Molecule: KSMKVTVAFNQARK [CJ1-43.50]

- solubility ([2]; aqueous buffer): > 5000 µg/mL
- stability [3]: stable
Molecule: DEEGAYFVSSGKYEGGNIYTKKEAFNVEDE [CJ1-44.9]

Molecule: Cry j IIG: SEQ ID NO: 191, amino acids 152-175 of Cry j II (GKGVIDGQGKQWWAGQCKWVNGRE; listed as Cryptomeria japonica)
- T cell proliferative response ([4]; 9 patients, FIG. 43): react

Molecule: Cry j IIH: SEQ ID NO: 192, amino acids 386-409 of Cry j II (DSMPCKDIKLSDISLKLTSGKIAS; listed as Cryptomeria japonica)
- T cell proliferative response ([4]; 9 patients, FIG. 43): react

B1: Cry j IID: recombinant peptide, amino acids 164-280 of Cry j II, SEQ ID NO: 188 (protein, listed as Cryptomeria japonica)
chain: MGHHHHHHEFWAGQCKWVNGREICNDRDRPTAIKFDFSTGLIIQGLKLMNSPEFHLVFGNCEGVKIIGISITAPRDSPNTDGIDIFASKNFHLQKNTIGTGDDCVAIGTGSSNIVIEDLICGPGHGI
- T cell proliferative response ([4]; 9 patients, FIG. 43): react

B2: Cry j IIF: recombinant peptide, amino acids 397-514 of Cry j II, SEQ ID NO: 190 (protein, listed as Cryptomeria japonica)
chain: MGHHHHHHEFISLKLTSGKIASCLNDNANGYFSGHVIPACKNLSPSAKRKESKSHKHPKTVMVENMRAYDKGNRTRILLGSRPPNCTNKCHGCSPCKAKLVIVHRIMPQEYYPQRWICSCHGKIYHP
- T cell proliferative response ([4]; 9 patients, FIG. 43): react

B3: Cry j IIC: recombinant peptide, amino acids 46-163 of Cry j II, SEQ ID NO: 187 (protein, listed as Cryptomeria japonica)
chain: MGHHHHHHEFRKVEHSRHDAINIFNVEKYGAVGDGKHDCTEAFSTAWQAACKNPSAMLLVPGSKKFVVNNLFFNGPCQPHFTFKVDGIIAAYQNPASWKNNRIWLQFAKLTGFTLMGKGVIDGQGKQW
- T cell proliferative response ([4]; 9 patients, FIG. 43): react

- plasma IgE binding response ([5]; patient #1034): negative
- plasma IgE binding response ([5]; patient plasma samples, FIGS. 31-33): further reduction in binding
- plasma IgE binding response ([5]; patients #1143 and #1146): clearly positive
B4: rCry j II: recombinant Cry j II expressed in E. coli with His6 leader (protein, listed as Cryptomeria japonica)
chain: MAMKLIAPMAFLAMQLIIMAAAEDQSAQIMLDSVVEKYLRSNRSLRKVEHSRHDAINIFNVEKYGAVGDGKHDCTEAFSTAWQAACKNPSAMLLVPGSKKFVVNNLFFNGPCQPHFTFKVDGIIAAYQNPASWKNNRIWLQFAKLTGFTLMGKGVIDGQGKQWWAGQCKWVNGREICNDRDRPTAIKFDFSTGLIIQGLKLMNSPEFHLVFGNCEGVKIIGISITAPRDSPNTDGIDIFASKNFHLQKNTIGTGDDCVAIGTGSSNIVIEDLICGPGHGISIGSLGRENSRAEVSYVHVNGAKFIDTQNGLRIKTWQGGSGMASHIIYENVEMINSENPILINQFYCTSASACQNQRSAVQIQDVTYKNIRGTSATAAAIQLKCSDSMPCKDIKLSDISLKLTSGKIASCLNDNANGYFSGHVIPACKNLSPSAKRKESKSHKHPKTVMVENMRAYDKGNRTRILLGSRPPNCTNKCHGCSPCKAKLVIVHRIMPQEYYPQRWICSCHGKIYHP
- T cell proliferative response ([4]; 9 patients, FIG. 43): react
- T cell proliferative response ([4]; n=6 patients, FIG. 42): respond well

B5: Cry j IIE: recombinant peptide, amino acids 281-396 of Cry j II, SEQ ID NO: 189 (protein, listed as Cryptomeria japonica)
chain: MGHHHHHHEFSIGSLGRENSRAEVSYVHVNGAKFIDTQNGLRIKTWQGGSGMASHIIYENVEMINSENPILINQFYCTSASACQNQRSAVQIQDVTYKNIRGTSATAAAIQLKCSDSMPCKDIKLSD
- T cell proliferative response ([4]; 9 patients, FIG. 43): react

— patent US8540999B2, “Allergenic proteins and peptides from Japanese cedar pollen” (Merck Patent GmbH, priority 1991, dated 2013)
